Results: patent US11298367B2, “Prodrugs of substituted triazole derivatives and uses thereof” (Bayer Aktiengesellschaft, priority 2017, dated 2022)

Experiments:
human V2 receptor = target: T1, human V2 receptor (Homo sapiens, UniProt P30518); assay: Cellular in vitro assay for vasopressin receptor activity (V2, CRE-luciferase); type: cell-based; settings: CHO cell line with human V2 receptor, [Arg8]-vasopressin at EC50; values are for the prodrug as such; read-out: IC50 hV2
T1 construct: expressed in transfected cells; host or cells: CHO K1 cells expressing firefly luciferase under a CRE-responsive promoter
T1 sequence (P30518 whole entry): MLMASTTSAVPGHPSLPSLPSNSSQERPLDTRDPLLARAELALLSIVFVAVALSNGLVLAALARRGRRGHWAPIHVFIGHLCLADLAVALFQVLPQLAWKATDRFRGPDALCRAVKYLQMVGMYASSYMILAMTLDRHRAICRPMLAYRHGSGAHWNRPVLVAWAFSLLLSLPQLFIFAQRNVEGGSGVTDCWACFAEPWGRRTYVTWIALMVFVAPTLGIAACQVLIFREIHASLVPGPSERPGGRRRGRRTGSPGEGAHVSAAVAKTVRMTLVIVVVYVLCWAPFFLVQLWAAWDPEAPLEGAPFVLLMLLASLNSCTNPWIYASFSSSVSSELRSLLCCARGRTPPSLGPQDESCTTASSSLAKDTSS
Experimental: (§1) B-1. Cellular In Vitro Assay for Determining Vasopressin Receptor Activity
(§2) The identification of agonists and antagonists of the V1a and V2 vasopressin receptors from humans, rats and dogs as well as the quantification of the activity of the compounds of the invention is carried out using recombinant cell lines. These cell lines originally derive from a hamster's ovary epithelial cell (Chinese Hamster Ovary, CHO K1, ATCC: American Type Culture Collection, Manassas, Va. 20108, USA). The test cell lines constitutively express the human, rat or dog V1a or V2 receptors. In case of the Gaq-coupled V1a receptors, cells are also stably transfected with a modified form of the calcium-sensitive photoproteins aequorin (human and rat V1a) or obelin (dog V1a), which, after reconstitution with the cofactor coelenterazine, emit light when there are increases in free calcium concentrations [Rizzuto R, Simpson A W, Brini M, Pozzan T, Nature 358, 325-327 (1992); Illarionov B A, Bondar V S, Illarionova V A, Vysotski E S, Gene 153 (2), 273-274 (1995)]. The resulting vasopressin receptor cells react to stimulation of the recombinantly expressed Via receptors by intracellular release of calcium ions, which can be quantified by the resulting photoprotein luminescence. The Gs-coupled V2 receptors are stably transfected into cell lines expressing the gene for firefly luciferase under control of a CRE-responsible promoter. Activation of V2 receptors induces the activation of the CRE-responsive promoter via cAMP increase, thereby inducing the expression of firefly luciferase. The light emitted by photoproteins of V1a cell lines as well as the light emitted by firefly luciferase of V2 cell lines corresponds to the activation or inhibition of the respective vasopressin receptor. The bioluminescence of the cell lines is detected using a suitable luminometer [Milligan G, Marshall F, Rees S, Trends in Pharmacological Sciences 17, 235-237 (1996)].
Vasopressin V2 Receptor Cell Lines:
On the day before the assay, the cells are plated out in culture medium (DMEM/F12, 2% FCS, 2 mM glutamine, 10 mM HEPES) in 384-well microtiter plates and kept in a cell incubator (96% humidity, 5% v/v CO2, 37C). On the day of the assay, test compounds in various concentrations and the agonist [Arg^8]-vasopressin at EC50 concentration are added together to the wells, and plates are incubated for 3 hours in a cell incubator. Upon addition of the cell lysis reagent Triton™ and the substrate luciferin, luminescence of firefly luciferase is measured in a luminometer.
(§3) Table 1A below lists individual IC50 values for the compounds of the invention (including racemic mixtures as well as separated enantiomers) that were obtained from cell lines transfected with the human V1a or V2 receptor. This means these IC50 values are the values for the prodrug and not for the underlying respective drug as the prodrug is mainly stable under the assay conditions.

human V1a receptor = target: T2, human V1a receptor (Homo sapiens, UniProt P37288); assay: Cellular in vitro assay for vasopressin receptor activity (V1a, aequorin luminescence); type: cell-based; settings: for IC50: CHO cell line with human V1a receptor, [Arg8]-vasopressin at EC50, values are for the prodrug as such, read-out: IC50 hV1a; for ratio IC50 hV2/hV1a: selectivity ratio hV2/hV1a
T2 construct: expressed in transfected cells; host or cells: CHO K1 (Chinese hamster ovary), also stably transfected with a modified aequorin
T2 sequence (P37288 whole entry): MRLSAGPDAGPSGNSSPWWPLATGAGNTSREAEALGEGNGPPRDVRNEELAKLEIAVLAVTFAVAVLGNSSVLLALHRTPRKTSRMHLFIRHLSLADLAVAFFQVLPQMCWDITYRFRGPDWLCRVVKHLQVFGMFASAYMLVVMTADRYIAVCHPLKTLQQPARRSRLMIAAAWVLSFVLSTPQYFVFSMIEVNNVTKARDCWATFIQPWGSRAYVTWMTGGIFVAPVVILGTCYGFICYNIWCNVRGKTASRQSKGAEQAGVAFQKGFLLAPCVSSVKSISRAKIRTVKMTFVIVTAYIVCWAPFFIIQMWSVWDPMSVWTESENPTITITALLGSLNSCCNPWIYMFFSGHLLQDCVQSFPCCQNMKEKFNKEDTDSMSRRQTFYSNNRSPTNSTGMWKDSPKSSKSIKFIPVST
Experimental: as §1, §2
Vasopressin V1a Receptor Cell Lines:
On the day before the assay, the cells are plated out in culture medium (DMEM/F12, 2% FCS, 2 mM glutamine, 10 mM HEPES, 5 μg/ml coelenterazine) in 384-well microtiter plates and kept in a cell incubator (96% humidity, 5% v/v CO2, 37C). On the day of the assay, test compounds in various concentrations are placed for 10 minutes in the wells of the microtiter plate before the agonist [Arg^8]-vasopressin at EC50 concentration is added. The resulting light signal is measured immediately in a luminometer.
as §3

Row | SMILES | IC50 (human V2 receptor) [µM] | IC50 (human V1a receptor) [µM] | ratio IC50 hV2/hV1a (human V1a receptor; Phosphate) | ratio IC50 hV2/hV1a (human V1a receptor)
1 | NC(=O)c1nc(Cn2nc(-c3ccc(Cl)cc3)n(C[C@H](OP(=O)([O-])O)C(F)(F)F)c2=O)nn1-c1ncccc1C(F)(F)F.[K+] [Example 2, Potassium (2S)-3-[1-({5-carbamoyl-1-[3-(trifluoromethyl)pyridin-2-yl]-1H-1,2,4-triazol-3-yl}-methyl)-3-(4-chlorophenyl)-5-oxo-1,5-dihydro-4H-1,2,4-triazol-4-yl]-1,1,1-trifluoropropan-2-yl Hydrogen Phosphate] | 0.62 | 0.0395 | 15.7 | –
2 | NC(=O)c1nc(Cn2nc(-c3ccc(Cl)cc3)n(C[C@H](OP(=O)([O-])O)C(F)(F)F)c2=O)nn1-c1ncccc1C(F)(F)F.[K+] [Example 3, Potassium (2S)-3-[1-({5-carbamoyl-1-[3-(trifluoromethyl)pyridin-2-yl]-1H-1,2,4-triazol-3-yl}-methyl)-3-(4-chlorophenyl)-5-oxo-1,5-dihydro-4H-1,2,4-triazol-4-yl]-1,1,1-trifluoropropan-2-yl Hydrogen Phosphate] | 0.123 | 0.00615 | 20.0 | –
3 | NC(=O)c1nc(Cn2nc(-c3ccc(Cl)cc3)n(C[C@H](OP(=O)([O-])O)C(F)(F)F)c2=O)nn1-c1ncccc1C(F)(F)F.[Na+] [Example 5, Sodium (2S)-3-[1-({5-carbamoyl-1-[3-(trifluoromethyl)pyridin-2-yl]-1H-1,2,4-triazol-3-yl}-methyl)-3-(4-chlorophenyl)-5-oxo-1,5-dihydro-4H-1,2,4-triazol-4-yl]-1,1,1-trifluoropropan-2-yl Hydrogen Phosphate] | 0.085 | 0.00505 | 16.8 | –
4 | NC(=O)c1nc(Cn2nc(-c3ccc(Cl)cc3)n(C[C@H](OP(=O)([O-])[O-])C(F)(F)F)c2=O)nn1-c1ncccc1C(F)(F)F.[Ca+2] [Example 8, Calcium (2S)-3-[1-({5-carbamoyl-1-[3-(trifluoromethyl)pyridin-2-yl]-1H-1,2,4-triazol-3-yl}-methyl)-3-(4-chlorophenyl)-5-oxo-1,5-dihydro-4H-1,2,4-triazol-4-yl]-1,1,1-trifluoropropan-2-yl Phosphate] | 0.145 | 0.017 | – | 8.5
5 | NC(=O)c1nc(Cn2nc(-c3ccc(Cl)cc3)n(C[C@H](OP(=O)([O-])O)C(F)(F)F)c2=O)nn1-c1ccccc1C(F)(F)F.[K+] [Example 11, Potassium (2S)-3-[1-({5-carbamoyl-1-[2-(trifluoromethyl)phenyl]-1H-1,2,4-triazol-3-yl}methyl)-3-(4-chlorophenyl)-5-oxo-1,5-dihydro-4H-1,2,4-triazol-4-yl]-1,1,1-trifluoropropan-2-yl Hydrogen Phosphate] | 0.037 | 0.0405 | 0.9 | –
6 | NC(=O)c1nc(Cn2nc(-c3ccc(Cl)cc3)n(C[C@H](OP(=O)([O-])O)C(F)(F)F)c2=O)nn1-c1ccccc1C(F)(F)F.[K+] [Example 12, Potassium (2S)-3-[1-({5-carbamoyl-1-[2-(trifluoromethyl)phenyl]-1H-1,2,4-triazol-3-yl}methyl)-3-(4-chlorophenyl)-5-oxo-1,5-dihydro-4H-1,2,4-triazol-4-yl]-1,1,1-trifluoropropan-2-yl Hydrogen Phosphate] | 0.024 | 0.0165 | 1.5 | –
7 | NC(=O)c1nc(Cn2nc(-c3ccc(Cl)cc3)n(C[C@H](OP(=O)([O-])O)C(F)(F)F)c2=O)nn1-c1ccccc1C(F)(F)F.[Na+] [Example 13, Sodium (2S)-3-[1-({5-carbamoyl-1-[2-(trifluoromethyl)phenyl]-1H-1,2,4-triazol-3-yl}methyl)-3-(4-chlorophenyl)-5-oxo-1,5-dihydro-4H-1,2,4-triazol-4-yl]-1,1,1-trifluoropropan-2-yl Hydrogen Phosphate] | 0.0265 | 0.019 | 1.4 | –
8 | NC(=O)c1nc(Cn2nc(-c3ccc(Cl)cc3)n(C[C@H](OP(=O)([O-])O)C(F)(F)F)c2=O)nn1-c1ccccc1C(F)(F)F.[Na+] [Example 14, Sodium (2S)-3-[1-({5-carbamoyl-1-[2-(trifluoromethyl)phenyl]-1H-1,2,4-triazol-3-yl}methyl)-3-(4-chlorophenyl)-5-oxo-1,5-dihydro-4H-1,2,4-triazol-4-yl]-1,1,1-trifluoropropan-2-yl Hydrogen Phosphate] | 0.0185 | 0.019 | 1.0 | –
9 | NC(=O)c1nc(Cn2nc(-c3ccc(Cl)cc3)n(C[C@H](OP(=O)([O-])[O-])C(F)(F)F)c2=O)nn1-c1ccccc1C(F)(F)F.[Mg+2] [Example 15, Magnesium (2S)-3-[1-({5-carbamoyl-1-[2-(trifluoromethyl)phenyl]-1H-1,2,4-triazol-3-yl}methyl)-3-(4-chlorophenyl)-5-oxo-1,5-dihydro-4H-1,2,4-triazol-4-yl]-1,1,1-trifluoropropan-2-yl Phosphate] | 0.021 | 0.0195 | – | 1.1
10 | NC(=O)c1nc(Cn2nc(-c3ccc(Cl)cc3)n(C[C@H](OP(=O)([O-])[O-])C(F)(F)F)c2=O)nn1-c1ccccc1C(F)(F)F.[Ca+2] [Example 16, Calcium (2S)-3-[1-({5-carbamoyl-1-[2-(trifluoromethyl)phenyl]-1H-1,2,4-triazol-3-yl}methyl)-3-(4-chlorophenyl)-5-oxo-1,5-dihydro-4H-1,2,4-triazol-4-yl]-1,1,1-trifluoropropan-2-yl Phosphate] | 0.0305 | 0.029 | – | 1.1
11 | NC(=O)c1nc(Cn2nc(-c3ccc(Cl)cc3)n(C[C@H](OP(=O)([O-])O)C(F)(F)F)c2=O)nn1-c1ncccc1Cl.[K+] [Example 18, Potassium (2S)-3-[1-{[5-carbamoyl-1-(3-chloropyridin-2-yl)-1H-1,2,4-triazol-3-yl]methyl}-3-(4-chlorophenyl)-5-oxo-1,5-dihydro-4H-1,2,4-triazol-4-yl]-1,1,1-trifluoropropan-2-yl Hydrogen Phosphate] | 0.084 | 0.0335 | 2.5 | –
12 | NC(=O)c1nc(Cn2nc(-c3ccc(Cl)cc3)n(C[C@H](OP(=O)([O-])O)C(F)(F)F)c2=O)nn1-c1ncccc1Cl.[K+] [Example 19, Potassium (2S)-3-[1-{[5-carbamoyl-1-(3-chloropyridin-2-yl)-1H-1,2,4-triazol-3-yl]methyl}-3-(4-chlorophenyl)-5-oxo-1,5-dihydro-4H-1,2,4-triazol-4-yl]-1,1,1-trifluoropropan-2-yl Hydrogen Phosphate] | 0.051 | 0.024 | 2.1 | –
13 | NC(=O)c1nc(Cn2nc(-c3ccc(Cl)cc3)n(C[C@H](OP(=O)([O-])O)C(F)(F)F)c2=O)nn1-c1ncccc1Cl.[Na+] [Example 21, Sodium (2S)-3-[1-{[5-carbamoyl-1-(3-chloropyridin-2-yl)-1H-1,2,4-triazol-3-yl]methyl}-3-(4-chlorophenyl)-5-oxo-1,5-dihydro-4H-1,2,4-triazol-4-yl]-1,1,1-trifluoropropan-2-yl Hydrogen Phosphate] | 0.038 | 0.021 | 1.8 | –
14 | NC(=O)c1nc(Cn2nc(-c3ccc(Cl)cc3)n(C[C@H](OP(=O)([O-])[O-])C(F)(F)F)c2=O)nn1-c1ncccc1Cl.[Ca+2] [Example 23, Calcium (2S)-3-[1-{[5-carbamoyl-1-(3-chloropyridin-2-yl)-1H-1,2,4-triazol-3-yl]methyl}-3-(4-chlorophenyl)-5-oxo-1,5-dihydro-4H-1,2,4-triazol-4-yl]-1,1,1-trifluoropropan-2-yl Phosphate] | 0.0735 | 0.027 | – | 2.7
